The target of data set [1] is T1, HIV-1 IN in the presence of LEDGF/p75 (Human immunodeficiency virus type 1 group M subtype B, UniProt P04585).
T1 construct: Recombinant IN and LEDGF/p75 proteins were expressed and purified; made in house
The data set can be described thus: HTRF IN LEDGF-dependent assay. In kind it is biochemical. The settings on record: for remaining activity at 100 µM: read-out: Percentage of control IN LEDGF-dependent activity in the presence of the indicated drug concentration; for Inhibition of HIV-1 IN LEDGF-dependent activity (in words): highest tested concentration; for IC50: pure compounds, in the presence of LEDGF, read-out: HIV-1 Integrase LEDGF-Dependent IC50. The procedure: Recombinant IN and LEDGF/p75 proteins were expressed and purified as described by Esposito et al. 2020 [67].
The IN activity was measured in the presence of LEDGF/p75 cellular cofactor in an HTRF assay. Data analysis of the assay results was performed using GraphPad Prism 9.
For orientation: In TR-FRET formats the signal depends on donor and acceptor labels being close together.

Data set [2] deals with T2, HIV-1 RT-associated RNase H (Human immunodeficiency virus type 1 group M subtype B, UniProt P04585).
T2 construct: HIV-1 group M subtype B heterodimeric RT; made in house
The data set can be described thus: RNase H polymerase independent cleavage assay. The class given is biochemical. Conditions: for remaining activity at 100 µM: read-out: Percentage of control RNase H activity in the presence of the indicated drug concentration. The procedure:
HIV-1 group M subtype B heterodimeric RT was expressed and purified essentially as previously described.
HIV RT-associated RNase H activity was measured as described by Corona et al. 2016 [68] using the RNase H inhibitor RDS1759 as a control. Data analysis of the assay results was performed using GraphPad Prism 9.

Data set [3] relates to HIV-1 RT, wild-type and mutant. Details: method as in PMID 23821410. The settings on record: wild-type and mutant RTs; cited from earlier work.
Data set [4] relates to HIV RT DNA polymerase activity. On the set-up: method as in Nutan et al. 2013 51. The settings on record: ref Nutan et al. 2013 51; cited from earlier work.
In the next data set the test system is target cells. Conditions: cited from earlier work.
In a further data set the test system is HIV-1 protease. Conditions: cited from earlier work.
A further data set concerns X4-tropic HIV-1. Details: method as in PMID 29480632. The settings on record: target cells; cited from earlier work.
Data set [5] relates to HIV-1 infection in Jurkat cells. On the set-up: method as in PMID 22140483. Conditions: cited from earlier work.
For another data set, the system named is HIV-1 in H9 lymphocytes. Details: method as in PMID 1698933. The settings on record: infected H9 lymphocytes; cited from earlier work.
The subject of another data set is H9 lymphocytes. Details: method as in PMID 1698933. The settings on record: cited from earlier work.

Where only a bound is given, the exact number is not on record here.

As usually defined, the IC50 is the concentration needed to halve the response being measured. As to `O=c1cc(-c2ccc(O)cc2)oc2cc(O[C@@H]3O[C@H](CO)[C@@H](O)[C@H](O)[C@H]3O)cc(O)c12` [Apigenin 7-O-glucoside], in data set [1], the remaining activity at 100 µM turned out to be 100%, the “Inhibition of HIV-1 IN LEDGF-dependent activity (in words)” value (“Inhibition … (in words)” below) was “totally inactive” and the IC50 is more than 100 µM. Further, the remaining activity at 100 µM in data set [2] stood at 100%. Also, in data set [2] (pure compounds), the half-inhibitory concentration (IC50) is more than 100 µM.

On to `O=c1cc(-c2ccc(O)cc2)oc2cc(O)cc(O)c12` [Apigenin], for which the 50% inhibitory concentration (IC50) was found to be 22 ± 3.5 µM in data set [1] and 16.1 ± 0.6 µM in data set [2] (pure compounds).

For the compound `C=C(C)[C@@H]1CC[C@]2(C(=O)O)CC[C@]3(C)[C@H](CC[C@@H]4[C@@]5(C)CC[C@H](O)C(C)(C)[C@@H]5CC[C@]43C)[C@@H]12` [Betulinic acid], in [1], the “Inhibition … (in words)” value is given as “weakly active” and the IC50 stood at 96.5 ± 3.5 µM. In addition, the “Inhibition of HIV-1 RT-associated functions” value in data set [3] is on record as “inhibited”. The same compound gave a concentration for half-maximal inhibition (IC50) in data set [2] (pure compounds) of 2 ± 0.2 µM.

On to `O=c1oc2c(O)c(O)cc3c(=O)oc4c(O)c(O)cc1c4c23` [Ellagic acid], for which the IC50 came to 0.075 ± 0.0005 µM in [1] and 1.4 ± 0.11 µM in data set [2] (pure compounds). Moreover, in [4], the “Inhibition of HIV RT (DNA polymerase activity)” value is given as “inability”. Moreover, in the data set on target cells, the Cytotoxicity result is given as “without cytotoxicity”. In the data set with HIV-1 protease, the “Inhibition of HIV-1 protease expression” value was “ability to inhibit”. In addition, the “Suppression of replication of X4-tropic HIV-1” value in the data set on X4-tropic HIV-1 is reported as “able to suppress”.

For the compound `O=c1cc(-c2ccc(O[C@@H]3O[C@H](CO)[C@@H](O)[C@H](O)[C@H]3O)c(O)c2)oc2cc(O)cc(O)c12` [Luteolin 4′-O-glucoside], in [1], the remaining activity at 100 µM was determined as 100%, the “Inhibition … (in words)” value is “totally inactive” and the IC50 is more than 100 µM. Further, the remaining activity at 100 µM in [2] stood at 100%. For the same compound, the 50% inhibitory concentration (IC50) in data set [2] (pure compounds) is more than 100 µM.

As to `O=c1cc(-c2ccc(O)c(O)c2)oc2cc(O)cc(O)c12` [Luteolin], the IC50 in data set [1] came out at 6.5 ± 0.5 µM; in data set [2] (pure compounds), 3.7 ± 0.5 µM. Moreover, the “Inhibition of HIV-1 infection” value in data set [5] is reported as “capable of inhibiting”.

On to `CC1(C)CC[C@]2(C(=O)O)CC[C@]3(C)C(=CC[C@@H]4[C@@]5(C)CC[C@H](O)C(C)(C)[C@@H]5CC[C@]43C)[C@@H]2C1` [Oleanolic acid], for which, in data set [1], the remaining activity at 100 µM was determined as 74%, the “Inhibition … (in words)” value is “inactive” and the half-inhibitory concentration (IC50) is more than 100 µM. In addition, the 50% inhibitory concentration (IC50) in data set [2] (pure compounds) was 6.7 ± 0.4 µM. Moreover, in the data set with HIV-1 protease, the “Inhibition of protease expression” value is “inhibit”.

On to `O=C1OC2C(O)OC3COC(=O)c4cc(O)c(O)c(O)c4-c4c(O)c(O)c5oc(=O)c6c(c(O)c(O)c7oc(=O)c4c5c76)-c4c(cc(O)c(O)c4O)C(=O)OC3C2OC(=O)c2cc(O)c(O)c(O)c2-c2c1cc(O)c(O)c2O` (stereo not drawn) [Punicalagins, Punicalagin α + β], for which the IC50 in data set [1] is 0.065 µM. Also, the “Inhibition of HIV-1 replication” value in the data set with HIV-1 in H9 lymphocytes is reported as “inhibited”. The “HIV-1 RT-Associated RNase H IC50” value in data set [2] (pure compounds) was determined as 0.12 ± 0.00 µM. The Cytotoxicity entry with H9 lymphocytes is on record as “low degree of cytotoxicity”.

Consider `CCOC(=O)C(=O)CC(=O)/C=C/c1cccn1Cc1ccccc1Cl` [RDS1759, reference compound], for which, in data set [2] (reference compound of Table 1, footnote c: expressed in µM), the “HIV-1 RT-Associated RNase H IC50” value was 10.7 ± 0.9^c µM.

With `C[C@H]1[C@H](C)CC[C@]2(C(=O)O)CC[C@]3(C)C(=CC[C@@H]4[C@@]5(C)CC[C@H](O)C(C)(C)[C@@H]5CC[C@]43C)[C@H]12` [Ursolic acid], in data set [1], the remaining activity at 100 µM stood at 68%, the “Inhibition … (in words)” value is “inactive” and the IC50 is more than 100 µM. This compound returned an IC50 in [2] (pure compounds) of 5.7 ± 0.1 µM. The “Inhibition of protease expression” value with HIV-1 protease was “inhibit”.

Source of the values: PMC8539310, “In Vitro Anti-HIV-1 Reverse Transcriptase and Integrase Properties of Punica granatum L. Leaves, Bark, and Peel Extracts and Their Main Compounds” (Plants, 2021).
